{"source": "patent US20110262456A1", "about": "“METHOD OF TREATING ISCHEMIA REPERFUSION INJURY” (priority 2008, published 2011)", "key": {"rabbit heart": {"tested_on": "rabbit heart", "conditions": "application after the onset of cardiac ischemia, rabbit infarct model; cited from earlier work"}, "[1]": {"tested_on": "HL-60 human promyelocytic leukemia cells", "conditions": "cited from earlier work"}, "rabbit hearts": {"tested_on": "rabbit hearts", "test": "Rabbit heart regional ischemia/reperfusion, infarct size as percentage of risk zone", "type": "in vivo, New Zealand White rabbits", "conditions": "ischemia alone, FIG. 9", "procedure": "New Zealand White rabbits of either sex weighing nearly 3 Kg were anesthetized with intravenous sodium pentobarbital (30 mg/kg). Throughout the experiment, additional anesthesia was administered as needed (5-15 mg pentobarbital/15 min) A heating pad maintained rectal temperature between 38.5 and 39.5-C. Animals were intubated through a tracheotomy and ventilated with 100% O2 with the aid of a mechanical ventilator. To administer drugs, a PE 50 catheter filled with heparinized saline was placed in an ear vein. After a left thoractomy, a prominent branch of the left coronary artery was surrounded with a suture (2-0 silk) to form a snare. The rabbits were allowed to stabilize for 15 min after surgery before the protocols were begun. […] The coronary artery was re-occluded, and […] diameter green fluorescent microspheres (Duke Scientific Corp., Palo Alto, Calif.) were infused into the perfusate to demarcate the ischemic zone as the area of tissue without fluorescence (region at risk). […] The areas of infarct and risk zone were determined by planimetry of each slice and volumes were calculated by multiplying each area by its slice thickness and summing them for each heart. Infarct size is expressed as a percentage of the risk zone. […] All data are expressed as mean TS.E.M. One-way analysis of variance (ANOVA) combined with Tukey's posthoc test was performed on baseline hemodynamic and infarct data. […]"}}, "note": "Like-named read-outs stand apart in the source and are kept apart here.", "data": [{"smiles": "N#Cc1c(N)nc(SCC(N)=O)c(C#N)c1-c1ccc(OCC2CC2)cc1", "note": "[BAY-60-6583]", "values": [{"measurement": "reduction of the infarct size", "setting": "rabbit heart", "value": "effective"}]}, {"smiles": "CNC(=O)[C@H]1O[C@@H](n2cnc3c(NCc4cccc(I)c4)nc(Cl)nc32)[C@H](O)[C@@H]1O", "note": "[C1-IB-MECA]", "values": [{"measurement": "apoptosis in HL-60 cells, low concentrations", "setting": "[1]; 10 nM or 1 μM", "value": "protected against"}, {"measurement": "apoptosis in HL-60 cells", "setting": "[1]; 10-30 μM", "value": "induced apoptosis"}]}, {"smiles": "CNC(=O)[C@H]1O[C@@H](n2cnc3c(NCc4cccc(I)c4)ncnc32)[C@H](O)[C@@H]1O", "note": "[IB-MECA]", "values": [{"measurement": "apoptosis in HL-60 cells", "setting": "[1]; 30 and 60 μM", "value": "induced apoptosis"}]}, {"smiles": "CCNC(=O)[C@H]1O[C@@H](n2cnc3c(N)ncnc32)[C@H](O)[C@@H]1O", "note": "[NECA, 5′-N-ethylcarboxamidoadenosine]", "values": [{"measurement": "protection (inhibition of infarct size)", "setting": "rabbit hearts", "value": 50, "unit": "%"}]}]}
